# Source: patent publication US7244431B2, “Allergy vaccines and their preparation” (priority 2000, dated 2007)
# Columns and labels:
# [1] = tested on: IgE antibodies in sera from birch pollen allergic patients; assay: ELISA detection of peptide- and rBet v 1-specific IgE antibodies; assay type: binding, human
# Method in brief: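 IgE binding detected by 1:1000 alkaline-phosphatase mouse monoclonal anti-human IgE after overnight 4 °C incubation with 1:3-diluted sera. Sera came from 60 birch pollen allergic patients (25 male, 35 female, age 19–60) and a non-atopic control.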
# [2] = tested on: birch pollen allergic patients; assay: Skin prick testing of allergic patients; assay type: in vivo, human; details: 100 μg/ml
# Experimental: SPTs were performed on the individuals forearms as described ([…]. et al. (1997) J. Clin Invest. 99, 1673-168; Dreborg S: (1989) J. Am. Acad. DerMatol. 21, 820-821). […] In addition standardized skin prick solutions (birch pollen extract and histamine) (Allergopharma, Reinbek, Germany) were tested. Reactions were recorded 20 minutes after SPT by photography and by transferring the ballpoint pen-surrounded wheal area with a scotch tape to paper.
sequence,measurement,setting,value
"DGGSILKISNKYHTKGDHEVKAEQVKASKEC [Peptide P4, Bet v 1-derived synthetic peptide, position aa 110-139, one cysteine added]",IgE (OD),"[1]; serum of NHS, non-allergic control individual",— (Dashes indicate reactivities below the cut-off level (OD=0.050))
same,IgE (OD),[1]; serum of patient 1,— (Dashes indicate reactivities below the cut-off level (OD=0.050))
same,IgE (OD),[1]; serum of patient 2,— (Dashes indicate reactivities below the cut-off level (OD=0.050))
same,IgE (OD),[1]; serum of patient 3,— (Dashes indicate reactivities below the cut-off level (OD=0.050))
same,IgE (OD),[1]; serum of patient 4,— (Dashes indicate reactivities below the cut-off level (OD=0.050))
same,IgE (OD),[1]; serum of patient 5,— (Dashes indicate reactivities below the cut-off level (OD=0.050))
same,IgE (OD),[1]; serum of patient 6,— (Dashes indicate reactivities below the cut-off level (OD=0.050))
same,IgE (OD),[1]; serum of patient 7,— (Dashes indicate reactivities below the cut-off level (OD=0.050))
same,IgE (OD),[1]; serum of patient 8,— (Dashes indicate reactivities below the cut-off level (OD=0.050))
same,IgE (OD),[1]; serum of patient 9,— (Dashes indicate reactivities below the cut-off level (OD=0.050))
same,IgE (OD),[1]; serum of patient 10,— (Dashes indicate reactivities below the cut-off level (OD=0.050))
same,IgE (OD),[1]; serum of patient 11,— (Dashes indicate reactivities below the cut-off level (OD=0.050))
same,IgE (OD),[1]; serum of patient 12,— (Dashes indicate reactivities below the cut-off level (OD=0.050))
same,IgE (OD),[1]; serum of patient 13,— (Dashes indicate reactivities below the cut-off level (OD=0.050))
same,IgE (OD),[1]; serum of patient 14,— (Dashes indicate reactivities below the cut-off level (OD=0.050))
same,IgE (OD),[1]; serum of patient 15,— (Dashes indicate reactivities below the cut-off level (OD=0.050))
same,IgE (OD),[1]; serum of patient 16,— (Dashes indicate reactivities below the cut-off level (OD=0.050))
same,IgE (OD),[1]; serum of patient 17,— (Dashes indicate reactivities below the cut-off level (OD=0.050))
same,IgE (OD),[1]; serum of patient 18,— (Dashes indicate reactivities below the cut-off level (OD=0.050))
same,IgE (OD),[1]; serum of patient 19,— (Dashes indicate reactivities below the cut-off level (OD=0.050))
same,IgE (OD),[1]; serum of patient 20,— (Dashes indicate reactivities below the cut-off level (OD=0.050))
same,IgE (OD),[1]; serum of patient 21,— (Dashes indicate reactivities below the cut-off level (OD=0.050))
same,IgE (OD),[1]; serum of patient 22,— (Dashes indicate reactivities below the cut-off level (OD=0.050))
same,IgE (OD),[1]; serum of patient 23,— (Dashes indicate reactivities below the cut-off level (OD=0.050))
same,IgE (OD),[1]; serum of patient 24,— (Dashes indicate reactivities below the cut-off level (OD=0.050))
same,IgE (OD),[1]; serum of patient 25,— (Dashes indicate reactivities below the cut-off level (OD=0.050))
same,IgE (OD),[1]; serum of patient 26,— (Dashes indicate reactivities below the cut-off level (OD=0.050))
same,IgE (OD),[1]; serum of patient 27,— (Dashes indicate reactivities below the cut-off level (OD=0.050))
same,IgE (OD),[1]; serum of patient 28,— (Dashes indicate reactivities below the cut-off level (OD=0.050))
same,IgE (OD),[1]; serum of patient 29,— (Dashes indicate reactivities below the cut-off level (OD=0.050))
same,IgE (OD),[1]; serum of patient 30,— (Dashes indicate reactivities below the cut-off level (OD=0.050))
same,IgE (OD),[1]; serum of patient 31,— (Dashes indicate reactivities below the cut-off level (OD=0.050))
same,IgE (OD),[1]; serum of patient 32,— (Dashes indicate reactivities below the cut-off level (OD=0.050))
same,IgE (OD),[1]; serum of patient 33,— (Dashes indicate reactivities below the cut-off level (OD=0.050))
same,IgE (OD),[1]; serum of patient 34,— (Dashes indicate reactivities below the cut-off level (OD=0.050))
same,IgE (OD),[1]; serum of patient 35,— (Dashes indicate reactivities below the cut-off level (OD=0.050))
same,IgE (OD),[1]; serum of patient 36,— (Dashes indicate reactivities below the cut-off level (OD=0.050))
same,IgE (OD),[1]; serum of patient 37,— (Dashes indicate reactivities below the cut-off level (OD=0.050))
same,IgE (OD),[1]; serum of patient 38,— (Dashes indicate reactivities below the cut-off level (OD=0.050))
same,IgE (OD),[1]; serum of patient 39,— (Dashes indicate reactivities below the cut-off level (OD=0.050))
same,IgE (OD),[1]; serum of patient 40,— (Dashes indicate reactivities below the cut-off level (OD=0.050))
same,IgE (OD),[1]; serum of patient 41,— (Dashes indicate reactivities below the cut-off level (OD=0.050))
same,IgE (OD),[1]; serum of patient 42,— (Dashes indicate reactivities below the cut-off level (OD=0.050))
same,IgE (OD),[1]; serum of patient 43,— (Dashes indicate reactivities below the cut-off level (OD=0.050))
same,IgE (OD),[1]; serum of patient 44,— (Dashes indicate reactivities below the cut-off level (OD=0.050))
same,IgE (OD),[1]; serum of patient 45,— (Dashes indicate reactivities below the cut-off level (OD=0.050))
same,IgE (OD),[1]; serum of patient 46,— (Dashes indicate reactivities below the cut-off level (OD=0.050))
same,IgE (OD),[1]; serum of patient 47,— (Dashes indicate reactivities below the cut-off level (OD=0.050))
same,IgE (OD),[1]; serum of patient 48,— (Dashes indicate reactivities below the cut-off level (OD=0.050))
same,IgE (OD),[1]; serum of patient 49,— (Dashes indicate reactivities below the cut-off level (OD=0.050))
same,IgE (OD),[1]; serum of patient 50,— (Dashes indicate reactivities below the cut-off level (OD=0.050))
same,IgE (OD),[1]; serum of patient 51,— (Dashes indicate reactivities below the cut-off level (OD=0.050))
same,IgE (OD),[1]; serum of patient 52,— (Dashes indicate reactivities below the cut-off level (OD=0.050))
same,IgE (OD),[1]; serum of patient 53,— (Dashes indicate reactivities below the cut-off level (OD=0.050))
same,IgE (OD),[1]; serum of patient 54,— (Dashes indicate reactivities below the cut-off level (OD=0.050))
same,IgE (OD),[1]; serum of patient 55,— (Dashes indicate reactivities below the cut-off level (OD=0.050))
same,IgE (OD),[1]; serum of patient 56,— (Dashes indicate reactivities below the cut-off level (OD=0.050))
same,IgE (OD),[1]; serum of patient 57,— (Dashes indicate reactivities below the cut-off level (OD=0.050))
same,IgE (OD),[1]; serum of patient 58,— (Dashes indicate reactivities below the cut-off level (OD=0.050))
same,IgE (OD),[1]; serum of patient 59,— (Dashes indicate reactivities below the cut-off level (OD=0.050))
same,IgE (OD),[1]; serum of patient 60,— (Dashes indicate reactivities below the cut-off level (OD=0.050))
same,mean wheal diameter,[2]; individual 1,0 mm
same,mean wheal diameter,[2]; individual 2,0 mm
same,mean wheal diameter,[2]; individual 3,0 mm
same,mean wheal diameter,[2]; individual 4,0 mm
same,mean wheal diameter,[2]; individual 5,0 mm
same,mean wheal diameter,"[2]; individual 6 (allergic, without birch pollen allergy)",0 mm
